Measured values: ChEMBL document CHEMBL1201862, “PubChem BioAssay data set” (2004)
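Where inhibition never reached the appropriate level, the endpoint shown equals the highest concentration tested. Otherwise, values were interpolated linearly from a five-concentration, 48-hour dose response in 96-well plates. GI50 marks 50% less growth.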 The source made the active and inactive calls. Cut-off read from the data, not from the text of the source: active = GI50 up to about 1.1 µM and inactive = higher.

Experiments:
Experiment in all cases: NCI-60 cell line screen, 48 h
NCI-H23 = test system: NCI-H23
SK-OV-3 = test system: SK-OV-3
DU-145 = test system: DU-145
SNB-75 = test system: SNB-75
SNB-19 = test system: SNB-19
T47D = test system: T47D
OVCAR-5 = test system: OVCAR-5
SK-MEL-5 = test system: SK-MEL-5
RXF 393 = test system: RXF 393
HOP-62 = test system: HOP-62
NCI-H460 = test system: NCI-H460
IGROV-1 = test system: IGROV-1
MOLT-4 = test system: MOLT-4
HCT-15 = test system: HCT-15
COLO 205 = test system: COLO 205
SW-620 = test system: SW-620
OVCAR-8 = test system: OVCAR-8
A498 = test system: A498
KM12 = test system: KM12
TK-10 = test system: TK-10
UACC-62 = test system: UACC-62
MDA-N = test system: MDA-N
Malme-3M = test system: Malme-3M
CAKI-1 = test system: CAKI-1
OVCAR-4 = test system: OVCAR-4
UO-31 = test system: UO-31
A549 = test system: A549
SK-MEL-2 = test system: SK-MEL-2
SF-539 = test system: SF-539
SR = test system: SR
M14 = test system: M14
ACHN = test system: ACHN
HL-60 = test system: HL-60
SF-295 = test system: SF-295
K562 = test system: K562
PC-3 = test system: PC-3
HT-29 = test system: HT-29
NCI-H522 = test system: NCI-H522
UACC-257 = test system: UACC-257
786-0 = test system: 786-0
NCI/ADR-RES = test system: NCI/ADR-RES
CCRF-CEM = test system: CCRF-CEM
NCI-H226 = test system: NCI-H226
BT-549 = test system: BT-549
OVCAR-3 = test system: OVCAR-3
MCF7 = test system: MCF7
MDA-MB-435 = test system: MDA-MB-435
SN12C = test system: SN12C
HOP-92 = test system: HOP-92
SK-MEL-28 = test system: SK-MEL-28
Hs-578T = test system: Hs-578T
LOX IMVI = test system: LOX IMVI
MDA-MB-231 = test system: MDA-MB-231
U-251 = test system: U-251
SF-268 = test system: SF-268
HCT-116 = test system: HCT-116

In the case of COc1cc(S(=O)(=O)Nc2nc(-c3ccc(N4C(=O)/C(=C\c5cccs5)N=C4c4ccccc4)cc3)cs2)ccc1Cl, the GI50 (NCI-H23) is reported as 34.8 µM (inactive), the GI50 (SK-OV-3) is reported as > 100 µM (inactive) and the GI50 (DU-145) is reported as > 100 µM (inactive). The GI50 (SNB-75) was 51.4 µM (inactive), the GI50 (SNB-19) was 66.2 µM (inactive) and the GI50 (T47D) was 45.8 µM (inactive). For the same compound, the GI50 (OVCAR-5) was > 100 µM (inactive), the GI50 (SK-MEL-5) was 43.2 µM (inactive) and the GI50 (RXF 393) was 32.1 µM (inactive). For the same compound, the GI50 (HOP-62) was > 100 µM (inactive), the GI50 (NCI-H460) was > 100 µM (inactive) and the GI50 (IGROV-1) was 42.2 µM (inactive). For the same compound, the GI50 (MOLT-4) was 43.9 µM (inactive), the GI50 (HCT-15) was greater than 100 µM and the GI50 (COLO 205) was > 100 µM (inactive). For the same compound, the GI50 (SW-620) was > 100 µM (inactive), the GI50 (OVCAR-8) was 46 µM (inactive) and the GI50 (A498) was > 100 µM (inactive). For the same compound, the GI50 (KM12) was 94 µM (inactive), the GI50 (TK-10) was > 100 µM (inactive) and the GI50 (UACC-62) was 25.3 µM (inactive). For the same compound, the GI50 (MDA-N) was 43.1 µM (inactive), the GI50 (Malme-3M) was 23.6 µM (inactive) and the GI50 (CAKI-1) was > 100 µM (inactive). For the same compound, the GI50 (OVCAR-4) was 57.3 µM (inactive), the GI50 (UO-31) was > 100 µM (inactive) and the GI50 (A549) was > 100 µM (inactive). The GI50 (SK-MEL-2) was 29.2 µM (inactive), the GI50 (SF-539) was 49.9 µM (inactive) and the GI50 (SR) was 39.5 µM (inactive). For the same compound, the GI50 (M14) was > 100 µM (inactive), the GI50 (ACHN) was > 100 µM (inactive) and the GI50 (HL-60) was 36.7 µM (inactive). For the same compound, the GI50 (SF-295) was > 100 µM (inactive), the GI50 (K562) was 64.9 µM (inactive) and the GI50 (PC-3) was 66.8 µM (inactive). The GI50 (HT-29) was > 100 µM (inactive), the GI50 (NCI-H522) was 29.4 µM (inactive) and the GI50 (UACC-257) was 71.3 µM (inactive). The GI50 (786-0) was > 100 µM (inactive), the GI50 (NCI/ADR-RES) was > 100 µM (inactive) and the GI50 (CCRF-CEM) was 41 µM (inactive). The GI50 (NCI-H226) was > 100 µM (inactive), the GI50 (BT-549) was 34.5 µM (inactive) and the GI50 (OVCAR-3) was > 100 µM (inactive). The GI50 (MCF7) was 40 µM (inactive), the GI50 (MDA-MB-435) was 55.6 µM (inactive) and the GI50 (SN12C) was 58.5 µM (inactive). The GI50 (HOP-92) was 28.1 µM (inactive), the GI50 (SK-MEL-28) was 71.6 µM (inactive) and the GI50 (Hs-578T) was 24 µM (inactive). The GI50 (LOX IMVI) was 32.1 µM (inactive), the GI50 (MDA-MB-231) was 29.8 µM (inactive) and the GI50 (U-251) was 45.4 µM (inactive). For the same compound, the GI50 (SF-268) was 18.7 µM (inactive) and the GI50 (HCT-116) was 49.2 µM (inactive).
